Laboratory results taken from PubChem BioAssay (NCI).
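Five compound concentrations were applied to cells in 96-well plates for 48 hours; endpoints were derived by simple linear interpolation of the resulting dose-response curve. The concentration for 50% growth inhibition is given as GI50. TGI is the concentration that stops growth completely.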

Tests used:
Test in all cases: NCI-60 cell line screen, 48 h
[1] = tested on: 786-0 renal
[2] = tested on: A498 renal
[3] = tested on: A549 NSCLC
[4] = tested on: ACHN renal
[5] = tested on: BT-549 breast
[6] = tested on: CAKI-1 renal
[7] = tested on: CCRF-CEM leukemia
[8] = tested on: COLO 205 colon
[9] = tested on: DU-145 prostate
[10] = tested on: HCC-2998 colon
[11] = tested on: HCT-116 colon
[12] = tested on: HCT-15 colon
[13] = tested on: HL-60(TB) leukemia
[14] = tested on: HOP-62 NSCLC
[15] = tested on: HOP-92 NSCLC
[16] = tested on: HS 578T breast
[17] = tested on: HT29 colon
[18] = tested on: IGROV1 ovarian
[19] = tested on: K-562 leukemia
[20] = tested on: KM12 colon
[21] = tested on: LOX IMVI melanoma
[22] = tested on: M14 melanoma
[23] = tested on: MALME-3M melanoma
[24] = tested on: MCF7 breast
[25] = tested on: MDA-MB-231 breast
[26] = tested on: MDA-MB-435
[27] = tested on: MOLT-4 leukemia
[28] = tested on: NCI-H226 lung
[29] = tested on: NCI-H23 lung
[30] = tested on: NCI-H460 lung
[31] = tested on: NCI-H522 lung
[32] = tested on: NCI/ADR-RES ovarian
[33] = tested on: OVCAR-3 ovarian
[34] = tested on: OVCAR-4 ovarian
[35] = tested on: OVCAR-5 ovarian
[36] = tested on: OVCAR-8 ovarian
[37] = tested on: PC-3 prostate
[38] = tested on: RPMI-8226 leukemia
[39] = tested on: RXF 393 renal
[40] = tested on: SF-268 CNS
[41] = tested on: SF-295 CNS
[42] = tested on: SF-539 CNS
[43] = tested on: SK-MEL-2 melanoma
[44] = tested on: SK-MEL-28 melanoma
[45] = tested on: SK-MEL-5 melanoma
[46] = tested on: SK-OV-3 ovarian
[47] = tested on: SN12C renal
[48] = tested on: SNB-19 CNS
[49] = tested on: SNB-75 CNS
[50] = tested on: SR leukemia
[51] = tested on: SW-620 colon
[52] = tested on: T-47D breast
[53] = tested on: TK-10 renal
[54] = tested on: U251 CNS
[55] = tested on: UACC-257 melanoma
[56] = tested on: UACC-62 melanoma
[57] = tested on: UO-31 renal

For `COc1cc(/C=C2\CN(C)C/C(=C\c3cc(OC)c(OC)c(OC)c3)C2=O)cc(OC)c1OC`, the GI50 [1] was 270 nM, the GI50 [2] was 447 nM and the TGI [2] was 1590 nM. For the same molecule, the GI50 [3] was 370 nM, the TGI [3] was 1590 nM and the GI50 [4] was 200 nM. It also gave a TGI [4] of 387 nM, a GI50 [5] of 295 nM and a TGI [5] of 923 nM. For the same molecule, the GI50 [6] was 288 nM, the TGI [6] was 951 nM and the GI50 [7] was 271 nM. It also gave a TGI [7] of 1130 nM, a GI50 [8] of 230 nM and a TGI [8] of 461 nM. It also gave a GI50 [9] of 355 nM, a TGI [9] of 1220 nM and a GI50 [10] of 366 nM. For the same molecule, the TGI [10] was 1220 nM, the GI50 [11] was 154 nM and the TGI [11] was 335 nM. The GI50 [12] was 214 nM, the TGI [12] was 555 nM and the GI50 [13] was 340 nM. The TGI [13] was 1670 nM, the GI50 [14] was 360 nM and the TGI [14] was 1130 nM. The GI50 [15] was 774 nM, the TGI [15] was 2800 nM and the GI50 [16] was 1010 nM. The TGI [16] was > 63500 nM, the GI50 [17] was 214 nM and the TGI [17] was 505 nM. For the same molecule, the GI50 [18] was 413 nM, the TGI [18] was 1730 nM and the GI50 [19] was 334 nM. The TGI [19] was > 100000 nM, the GI50 [20] was 195 nM and the TGI [20] was 394 nM. The GI50 [21] was 141 nM, the TGI [21] was 370 nM and the GI50 [22] was 306 nM. It also gave a TGI [22] of 1570 nM, a GI50 [23] of 209 nM and a TGI [23] of 435 nM. For the same molecule, the GI50 [24] was 317 nM, the TGI [24] was 1830 nM and the GI50 [25] was 336 nM. It also gave a TGI [25] of 1030 nM, a GI50 [26] of 287 nM and a TGI [26] of 1020 nM. It also gave a GI50 [27] of 323 nM, a TGI [27] of 4500 nM and a GI50 [28] of 239 nM. The TGI [28] was 588 nM, the GI50 [29] was 420 nM and the TGI [29] was 1610 nM. The GI50 [30] was 252 nM, the TGI [30] was 654 nM and the GI50 [31] was 234 nM. The TGI [31] was 624 nM, the GI50 [32] was 349 nM and the TGI [32] was > 100000 nM. For the same molecule, the GI50 [33] was 328 nM, the TGI [33] was 892 nM and the GI50 [34] was 342 nM. It also gave a TGI [34] of 1950 nM, a GI50 [35] of 357 nM and a TGI [35] of 1170 nM. The GI50 [36] was 312 nM, the TGI [36] was 75700 nM and the GI50 [37] was 1320 nM. It also gave a TGI [37] of 4520 nM, a GI50 [38] of 266 nM and a TGI [38] of 841 nM. The GI50 [39] was 199 nM, the TGI [39] was 389 nM and the GI50 [40] was 346 nM. For the same molecule, the TGI [40] was 1600 nM, the GI50 [41] was 319 nM and the TGI [41] was 1120 nM. For the same molecule, the GI50 [42] was 379 nM, the TGI [42] was 1330 nM and the GI50 [43] was 305 nM. The TGI [43] was 959 nM, the GI50 [44] was 200 nM and the TGI [44] was 429 nM. For the same molecule, the GI50 [45] was 204 nM, the TGI [45] was 434 nM and the GI50 [46] was 412 nM. It also gave a TGI [46] of 1410 nM, a GI50 [47] of 267 nM and a TGI [47] of 833 nM. It also gave a GI50 [48] of 1140 nM, a TGI [48] of 2600 nM and a GI50 [49] of 667 nM. The TGI [49] was 2480 nM, the GI50 [50] was 240 nM and the TGI [50] was 1410 nM. The GI50 [51] was 347 nM, the TGI [51] was 1420 nM and the GI50 [52] was 1120 nM. The TGI [52] was 5020 nM, the GI50 [53] was 247 nM and the TGI [53] was 771 nM. It also gave a GI50 [54] of 257 nM, a TGI [54] of 746 nM and a GI50 [55] of 245 nM. The TGI [55] was 758 nM, the GI50 [56] was 186 nM and the TGI [56] was 383 nM. For the same molecule, the GI50 [57] was 280 nM and the TGI [57] was 818 nM.
